Measured values: the supplement of paper PMC4862054

What was measured:
BT-474 [1] = assay: normalised viability (% of control), CellTiter-Blue; higher = more viable cells (about 100 = DMSO control); details: 100 nM; incubation time: 72 h
Method in brief: (§1)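 Plates were quality-checked by Z'-factor and normalised to vehicle (100) and a positive kill control (0). The underlying assay incubated breast cancer cell lines for 72 h on 384-well plates with compound, then added 2.5 µl CellTiter-Blue for 2 h at 37 °C and read at 560/590 nm. The value is normalised viability at a single listed concentration of the series.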

BT-549 [2] = assay: as above; details: 100 nM; incubation time: 72 h
Method in brief: as §1

DU-4475 [3] = assay: as above; details: 10 nM; incubation time: 72 h
Method in brief: as §1

HCC1599 [4] = assay: as above; details: 100 nM; incubation time: 72 h
Method in brief: as §1

HDQ-P1 [5] = assay: as above; details: 10 nM; incubation time: 72 h
Method in brief: as §1

MDA-MB-231 [6] = assay: as above; details: 100 nM; incubation time: 72 h
Method in brief: as §1

MDA-MB-436 [7] = assay: as above; details: 100 nM; incubation time: 72 h
Method in brief: as §1

MDA-MB-453 [8] = assay: as above; details: 10 nM; incubation time: 72 h
Method in brief: as §1

MFM-223 [9] = assay: as above; details: 100 nM; incubation time: 72 h
Method in brief: as §1

BT-474 [10] = assay: drug sensitivity score (DSS), CellTiter-Blue viability (DSS (AUC-based score)); higher = stronger viability inhibition; extreme values may be limits of the assay; details: incubation time: 72 h
Protocol: (§2)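 DSRT with the CellTiter-Blue (resazurin reduction) viability readout, fluorescence 560/590 nm, 72 h incubation. Plates were normalised to DMSO and benzethonium chloride controls. DSS is computed from the area under the fitted dose-response curve (5 or 9 concentrations).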

BT-549 [11] = assay: as above; details: incubation time: 72 h
Protocol: as §2

CAL-120 = assay: as above; details: incubation time: 72 h
Protocol: as §2

CAL-148 = assay: as above; details: incubation time: 72 h
Protocol: as §2

CAL-51 = assay: as above; details: incubation time: 72 h
Protocol: as §2

CAL-85-1 = assay: as above; details: incubation time: 72 h
Protocol: as §2

DU-4475 [12] = assay: as above; details: incubation time: 72 h
Protocol: as §2

HCC1143 = assay: as above; details: incubation time: 72 h
Protocol: as §2

HCC1599 [13] = assay: as above; details: incubation time: 72 h
Protocol: as §2

HCC1937 = assay: as above; details: incubation time: 72 h
Protocol: as §2

HDQ-P1 [14] = assay: as above; details: incubation time: 72 h
Protocol: as §2

Hs578T = assay: as above; details: incubation time: 72 h
Protocol: as §2

MDA-MB-231 [15] = assay: as above; details: incubation time: 72 h
Protocol: as §2

MDA-MB-436 [16] = assay: as above; details: incubation time: 72 h
Protocol: as §2

MDA-MB-453 [17] = assay: as above; details: incubation time: 72 h
Protocol: as §2

MDA-MB-468 = assay: as above; details: incubation time: 72 h
Protocol: as §2

MFM-223 [18] = assay: as above; details: incubation time: 72 h
Protocol: as §2

SK-BR-3 = assay: as above; details: incubation time: 72 h
Protocol: as §2

SMILES | normalised viability (BT-474 [1]) [%] | normalised viability (BT-549 [2]) [%] | normalised viability (DU-4475 [3]) [%] | normalised viability (HCC1599 [4]) [%] | normalised viability (HDQ-P1 [5]) [%] | normalised viability (MDA-MB-231 [6]) [%] | normalised viability (MDA-MB-436 [7]) [%] | normalised viability (MDA-MB-453 [8]) [%] | normalised viability (MFM-223 [9]) [%] | drug sensitivity score (BT-474 [10]) | drug sensitivity score (BT-549 [11]) | drug sensitivity score (CAL-120) | drug sensitivity score (CAL-148) | drug sensitivity score (CAL-51) | drug sensitivity score (CAL-85-1) | drug sensitivity score (DU-4475 [12]) | drug sensitivity score (HCC1143) | drug sensitivity score (HCC1599 [13]) | drug sensitivity score (HCC1937) | drug sensitivity score (HDQ-P1 [14]) | drug sensitivity score (Hs578T) | drug sensitivity score (MDA-MB-231 [15]) | drug sensitivity score (MDA-MB-436 [16]) | drug sensitivity score (MDA-MB-453 [17]) | drug sensitivity score (MDA-MB-468) | drug sensitivity score (MFM-223 [18]) | drug sensitivity score (SK-BR-3)
CN(N=O)C(=O)N[C@@H](C=O)[C@@H](O)[C@H](O)[C@H](O)CO [Streptozocin] | 104 | 104 | 99.1 | 101 | 106 | 101 | 101 | 112 | 90.6 | 0 | 0 | 0 | 0 | 0 | 0 | 0 | 0 | 0 | 3.78 | 0 | 0 | 0 | 0 | 0 | 0 | 0 | 0
O=C1CCC(N2C(=O)c3ccccc3C2=O)C(=O)N1 (centres undefined) [Thalidomide] | 109 | 88 | 91.3 | 108 | 101 | 106 | 105 | 98.3 | 90.7 | 0 | 0 | 0 | 0 | 0 | 0 | 0 | 0 | 0 | 0 | 0 | 0 | 0 | 0 | 0 | 0 | 0 | 0
